Assay results taken from PMC3257078, “Predicting Antitumor Activity of Peptides by Consensus of Regression Models Trained on a Small Data Sample” (International Journal of Molecular Sciences, 2011).
Read-outs that look alike come from different tables or passages of the source.

Tests used:
MCF-7 (breast carcinoma) [1] = details: c = 10^-4 M, cited from earlier work
Description: Table 3 Growth inhibition effects of OGF-related peptides. | column: PG(%) ^a / MCF-7

[2] = test system: HeLa (cervical carcinoma); details: c = 10^-4 M, cited from earlier work
Description: Table 3 Growth inhibition effects of OGF-related peptides. | column: PG(%) ^a / HeLa

SW 620 (colon carcinoma) [3] = details: c = 10^-4 M, cited from earlier work
Description: Table 3 Growth inhibition effects of OGF-related peptides. | column: PG(%) ^a / SW620

[4] = test system: HeLa (cervical carcinoma); assay: Proliferation assay (MTT), HeLa cells; assay type: cell-based; details: c = 10^-4 M, 72 h incubation, absorbance 570 nm, quadruplicate in three individual experiments
Description: (§1) Peptides 10, 12–14 as well as trisulfoxide derivative 15 were screened for possible antiproliferative effects on three cell lines: SW 620 (colon carcinoma), MCF-7 (breast carcinoma) and HeLa (cervical carcinoma), according to the previously published procedure. Table 3 summarizes activities found for tested peptides, expressed as percentage of growth (PG) of three cell lines, together with values for OGF and three OGF-related peptides proposed by the SVM radial basis function kernel (RBF). […] Therefore, the approach presented here managed to select peptides with improved biological activities from virtual library.
(§2) The biological potential of prepared compounds has been tested in the Laboratory for experimental therapy (Ruđer Bošković Institute) following the previously published procedure. Briefly, MCF-7, SW 620 and HeLa cells were cultured as monolayers and maintained in Dulbecco’s modified Eagle medium (DMEM), supplemented with 10% fetal bovine serum (FBS), 2mM L-glutamine, 100 U/mL penicillin and 100 μg/mL streptomycin in a humidified atmosphere with 5% CO2 at 37 °C. The panel cell lines were inoculated onto a series of standard 96-well microtiter plates on day 0, at 1 × 10^4 to 3 × 10^4 cells/mL, depending on the doubling times of specific cell line. Test agents were then added in five, 10-fold dilutions (10^−8 to 10^−4 M) and incubated for a further 72 hours. Working dilutions were freshly prepared on the day of testing. The solvent was also tested for eventual inhibitory activity by adjusting its concentration to be the same as in working concentrations. After 72 hours of incubation the cell growth rate was evaluated by performing the MTT assay. For this purpose the substance treated medium was discarded and MTT was added to each well at a concentration of 20 μg/40 μL. After four hours of incubation the precipitates were dissolved in 160 μL of dimethylsulphoxide (DMSO). The absorbance that is directly proportional to the number of living, metabolically active cells was measured on a microplate reader at 570 nm. Each test point was performed in quadruplicate in three individual experiments.

SW 620 (colon carcinoma) [5] = assay: Proliferation assay (MTT), SW 620 cells; assay type: cell-based; details: c = 10^-4 M, 72 h incubation, absorbance 570 nm, quadruplicate in three individual experiments
Description: as §1, §2

MCF-7 (breast carcinoma) [6] = assay: Proliferation assay (MTT), MCF-7 cells; assay type: cell-based; details: c = 10^-4 M, 72 h incubation, absorbance 570 nm, quadruplicate in three individual experiments
Description: as §1, §2

[7] = Oxidation of Met residues to sulfoxide during acid Boc deprotection; assay type: physicochemical; details: cold TFA-H2O (9:1), ice bath, 5 min, full scan MS: only traces of 11 (m/z 750), oxidized forms m/z 766, 782, 798
Protocol: Synthesis of methionine rich peptides 10–14 was based on the 2 + 2 and 2 + 3 coupling between Boc-protected dipeptides 1–4 and H-Met-Met-OH or H-Met-Met-Met-OH (Scheme 1). Different methods of peptide bond formation were tested; finally peptides 5–7 were obtained by the DCC/HOSu method, activation with HATU yielded Ada-containing pentapeptide 8, while pentapeptide 9 was obtained by the mixed anhydride method (details in the Experimental section). Finally, deprotection of the Boc group was performed by acid hydrolysis and extra precautions were taken due to the known susceptibility of methionine residue toward acid-promoted oxidation to sulfoxide. Therefore, deprotection step was performed in ice bath, crude product was immediately purified by the HPLC and residual acid removed by passing through the short C18 column. […] During the purification procedure, only oxidized product 15 was isolated. All prepared compounds were characterized by NMR spectroscopy and deprotected compounds 10 and 12–15 additionally by tandem mass spectrometry and HRMS. The main feature of MS/MS spectra of the molecular [M + H]^+ ions of all peptides is high abundance of Y” and B-type fragment ions (Figure S1, Supplementary Information).
Boc-protected peptides 5–9 were treated with cold TFA-H2O (9:1) mixture in ice bath for 5 min. […]

Substance | PG(%) HeLa (percentage of growth) [4] | PG(%) SW620 (percentage of growth) (SW 620 (colon carcinoma) [5]) | PG(%) MCF-7 (percentage of growth) (MCF-7 (breast carcinoma) [6]) | PG(%) MCF-7 (percentage of growth) (MCF-7 (breast carcinoma) [1]; training set peptides) | PG(%) HeLa (percentage of growth) ([2]; training set peptides) | PG(%) SW620 (percentage of growth) (SW 620 (colon carcinoma) [3]; training set peptides) | further results
H-Phe-Ada-Gly-Phe-Met-OH | – | – | – | – | – | – | PG(%) MCF-7 (percentage of growth) (MCF-7 (breast carcinoma) [1]): 39%; PG(%) HeLa (percentage of growth) [2]: 49%; PG(%) SW620 (percentage of growth) (SW 620 (colon carcinoma) [3]): 35%
H-Phe-Ada-Gly-Phe-Phe-OH | – | – | – | – | – | – | PG(%) MCF-7 (percentage of growth) (MCF-7 (breast carcinoma) [1]): 41%; PG(%) HeLa (percentage of growth) [2]: 23%; PG(%) SW620 (percentage of growth) (SW 620 (colon carcinoma) [3]): 39%
H-Phe-Ada-Met(O)-Met(O)-Met(O)-OH [Compound 15] | 64% | 77% | 82% | – | – | – | –
H-Phe-Ada-Met-Met-Met-OH [Compound 11, Ada-containing pentapeptide, only traces seen; oxidized to 15 during deprotection] | – | – | – | – | – | – | Susceptibility of Met residues to oxidation (sulfoxide formation) [7]: extreme susceptibility to oxidation
H-Phe-Ala-Met-Met-Met-OH [Compound 10] | 88% | 100% | 74% | – | – | – | –
H-Phe-Ala-Met-Met-OH [Compound 13] | 71% | 86% | 68% | – | – | – | –
H-Phe-Gly-Met-Met-Met-OH [Compound 12] | 86% | 95% | 86% | – | – | – | –
H-Tyr-(R)-Ada-Gly-OH | – | – | – | 100% | 89% | 87% | –
H-Tyr-(R)-Ada-OH | – | – | – | 99% | 97% | 88% | –
H-Tyr-(S)-Ada-Gly-OH | – | – | – | 100% | 90% | 85% | –
H-Tyr-(S)-Ada-OH | – | – | – | 100% | 92% | 72% | –
H-Tyr-Ada-Gly-Phe-Met-OH | – | – | – | 100% | 85% | 85% | –
H-Tyr-Ada-Gly-Phe-Phe-OH | – | – | – | – | – | – | PG(%) MCF-7 (percentage of growth) (MCF-7 (breast carcinoma) [1]): 81%; PG(%) HeLa (percentage of growth) [2]: 71%; PG(%) SW620 (percentage of growth) (SW 620 (colon carcinoma) [3]): 38%
H-Tyr-Ala-Met-Met-Met-OH [Compound 14] | 91% | 97% | 71% | – | – | – | –
H-Tyr-Gly-Gly-Phe-Met-OH [OGF, native opioid growth factor (OGF), Met-enkephalin] | 88% | 85% | 92% | – | – | – | –
